According to article PMC4579598 (2015):

Assays:
[1] = tested on: myc2345 (DNA, G4) TGAGGGTGGGGAGGGTGGGGAA; assay: displacement of DAOTA-M2 followed by fluorescence lifetime (FLIM); conditions: 100 mM K+; 10 mM lithium cacodylate pH 7.3; DAOTA-M2 displaced, duplex DNA present
[2] = tested on: PDGF-A (DNA, G4) GGAGGCGGGGGGGGGGGGGCGGGGGCGGGGGCGGGGGAGGGGCGCGGC; assay: fluorescence emission titration; conditions: 100 mM K+ (DNA annealed in 25 mM K+); 10 mM lithium cacodylate pH 7.3, 2 μM compound; per binding motif; log Ka 5.7-6.1 over all DNAs
[3] = tested on: ds17 (DNA, duplex) CCAGTTCGTAGTAACCC/GGGTTACTACGAACTGG; assay: fluorescence emission titration; conditions: 100 mM K+; 10 mM lithium cacodylate pH 7.3, 2 μM compound; per binding motif; log Ka 5.7-6.1 over all DNAs
[4] = tested on: ss17 (DNA, single strand) CCAGTTCGTAGTAACCC; assay: fluorescence emission titration; conditions: 100 mM K+; 10 mM lithium cacodylate pH 7.3, 2 μM compound; per five-base motif; log Ka 5.7-6.1 over all DNAs
[5] = tested on: myc2345 (DNA, G4) TGAGGGTGGGGAGGGTGGGGAA; assay: fluorescence emission titration; conditions: 100 mM K+; 10 mM lithium cacodylate pH 7.3, 2 μM compound; per binding motif; log Ka 5.7-6.1 over all DNAs
[6] = tested on: TBA (DNA, G4) GGTTGGTGTGGTTGG; assay: fluorescence emission titration; conditions: 100 mM K+; 10 mM lithium cacodylate pH 7.3, 2 μM compound; log Ka 5.7-6.1 over all DNAs

NCCOc1cc(C(=O)Nc2cc(OCCN)c3ccccc3n2)nc(C(=O)Nc2cc(OCCN)c3ccccc3n2)c1
binding [1]: yes

c1cc2oc3cccc4c3[c+]3c2c(c1)n(CCN1CCOCC1)c1cccc(c13)n4CCN1CCOCC1
Ka [2]: 761000 M⁻¹
binding [3]: yes
binding [4]: yes
binding [5]: yes
binding [6]: yes
